Consider two compounds from PMC10589313 (Nature Communications, 2023).

For one assay, the target named is T1, human H4R T99A mutant (Homo sapiens, UniProt Q9H3N8, T99A).
T1 construct: a mutant H4R (human, full-length, and untagged); expressed in transfected cells; host or cells: HEK293A
The assay can be described thus: TGFα shedding assay, H4R T99A mutant. The conditions noted are these: T99A mutant; AP-TGFα release; read-out: Emax (%) mean ± SEM. It is filed as cell-based. How it is done:
(§1) The mutants were prepared using the primers listed in Supplementary Table 2. […] The chimeric Gαq/i1 subunit comprises the Gαq backbone and Gαi1-derived six-amino acid C-terminus and couples with Gi-coupled H4R but induces a Gq-dependent TGFα shedding response. After culturing for 1 day and incubating at 37 °C in a 5% CO2 incubator, the transfected cells were harvested by trypsinization, neutralized with Dulbecco’s modified Eagle’s medium containing 10% fetal calf serum (FCS) and penicillin–streptomycin, washed once with Hank’s balanced salt solution (HBSS) containing 5 mM of HEPES (pH 7.4), and resuspended in 6 mL of the HEPES-containing HBSS. The cell suspension was seeded into a 96-well plate at a volume of […] per well (typically, 48 wells per transfected cells) and incubated for 30 min in the CO2 incubator. Test compounds (10×, diluted in 0.01% BSA and 5 mM of HEPES-containing HBSS, […] volume) were added to duplicate wells and incubated for 1 h. After centrifugation, the conditioned medium ([…]) was transferred to an empty 96-well plate. AP reaction solution [10 mM of p-nitrophenylphosphate (p-NPP), 120 mM of Tris–HCl (pH 9.5), 40 mM of NaCl, and 10 mM of MgCl2] was dispensed into the cell culture plates and plates containing conditioned media ([…]). Absorbance was measured at 405 nm before and after a 1-h incubation period at 25 °C using a microplate reader (iMark™ Microplate Absorbance Reader; BioRad). Ligand-induced AP-TGFα release was calculated as previously described. The vehicle-treated AP-TGFα release signal was set as a baseline unless otherwise specified. AP-TGFα release signals were fitted with a four-parameter sigmoidal concentration-response curve, from which EC50 and Emax values were obtained, using GraphPad Prism 9 software (GraphPad Prism). Negative values of logarithmically transformed EC50 values (pEC50) were used to calculate the mean and standard error of independent experiments.
(§2) All functional study data were analyzed using Prism 9 (GraphPad) and are presented as mean ± standard error of the mean (SEM) of three independent experiments. Statistical analyses were performed using Prism 9 (GraphPad) with one-way analysis of variance followed by Dunnett’s post-hoc test. Values with p < 0.05 are considered statistically significant.

A further assay concerns the target T2, human H4R Y319A mutant (Homo sapiens, UniProt Q9H3N8, Y319A).
T2 construct: a mutant H4R (human, full-length, and untagged); expressed in transfected cells; host or cells: HEK293A
The assay can be described thus: TGFα shedding assay, H4R Y319A mutant. Format: cell-based. The conditions noted are these: Y319A, raw replicates. As to the method: as §1, §2

The next assay addresses T3, human wild-type H4R (Homo sapiens, UniProt Q9H3N8).
T3 construct: a mutant H4R (human, full-length, and untagged); expressed in transfected cells; host or cells: HEK293A
The assay can be described thus: TGFα shedding assay, wild-type H4R. Format: cell-based. Particulars: WT H4R; AP-TGFα release; read-out: Emax (%) mean ± SEM. How it is done:
as §1, §2

The target of a further assay is T4, human H4R Y95A mutant (Homo sapiens, UniProt Q9H3N8, Y95A).
T4 construct: a mutant H4R (human, full-length, and untagged); expressed in transfected cells; host or cells: HEK293A
Briefly: TGFα shedding assay, H4R Y95A mutant. Format: cell-based. Particulars: Y95A mutant vs wild type. How it is done: as §1
(§3) All functional study data were analyzed using Prism 9 (GraphPad) and are presented as mean ± standard error of the mean (SEM) of three independent experiments. […]

A further assay has as its system H2R. Particulars: range in words; cited from earlier work.
A further assay deals with T5, human H4R N147W mutant (Homo sapiens, UniProt Q9H3N8, N147W).
T5 construct: a mutant H4R (human, full-length, and untagged); expressed in transfected cells; host or cells: HEK293A
The assay can be described thus: TGFα shedding assay, H4R N147W mutant. It is filed as cell-based. Particulars: N147W (H1R mimic) mutant vs wild type. As to the method:
as §1, §2

A further assay addresses T6, human H4R W348A mutant (Homo sapiens, UniProt Q9H3N8, W348A).
T6 construct: a mutant H4R (human, full-length, and untagged); expressed in transfected cells; host or cells: HEK293A
Briefly: TGFα shedding assay, H4R W348A mutant. The conditions noted are these: W348A mutant vs wild type. Format: cell-based. How it is done:
as §1, §3

Another assay deals with T7, human H4R E182N mutant (Homo sapiens, UniProt Q9H3N8, E182N).
T7 construct: a mutant H4R (human, full-length, and untagged); expressed in transfected cells; host or cells: HEK293A
The assay can be described thus: TGFα shedding assay, H4R E182N mutant. Format: cell-based. The conditions noted are these: E182N (H1R mimic) mutant vs wild type. As to the method:
as §1, §3

The subject of the next assay is H1R. The conditions noted are these: range in words; cited from earlier work.
Another assay addresses T8, human H4R D94A mutant (Homo sapiens, UniProt Q9H3N8, D94A).
T8 construct: a mutant H4R (human, full-length, and untagged); expressed in transfected cells; host or cells: HEK293A
The assay can be described thus: TGFα shedding assay, H4R D94A mutant. It is filed as cell-based. Particulars: D94A mutant vs wild type. How it is done:
as §1, §3

In a further assay the target is T9, human H4R Q347A mutant (Homo sapiens, UniProt Q9H3N8, Q347A).
T9 construct: a mutant H4R (human, full-length, and untagged); expressed in transfected cells; host or cells: HEK293A
The assay can be described thus: TGFα shedding assay, H4R Q347A mutant. Format: cell-based. Particulars: Q347A mutant; AP-TGFα release; read-out: Emax (%) mean ± SEM. As to the method: as §1, §2

A further assay concerns the target T10, human H4R N147A mutant (Homo sapiens, UniProt Q9H3N8, N147A).
T10 construct: a mutant H4R (human, full-length, and untagged); expressed in transfected cells; host or cells: HEK293A
Briefly: TGFα shedding assay, H4R N147A mutant. Format: cell-based. Particulars: N147A mutant; AP-TGFα release; read-out: Emax (%) mean ± SEM. How it is done:
as §1, §2

The target in another assay is T11, human H4R N147Y mutant (Homo sapiens, UniProt Q9H3N8, N147Y).
T11 construct: a mutant H4R (human, full-length, and untagged); expressed in transfected cells; host or cells: HEK293A
The assay can be described thus: TGFα shedding assay, H4R N147Y mutant. It is filed as cell-based. Particulars: N147Y mutant; AP-TGFα release; read-out: Emax (%) mean ± SEM. As to the method:
as §1, §2

The target of another assay is T12, human H4R F344I mutant (Homo sapiens, UniProt Q9H3N8, F344I).
T12 construct: a mutant H4R (human, full-length, and untagged); expressed in transfected cells; host or cells: HEK293A
The assay can be described thus: TGFα shedding assay, H4R F344I mutant. Format: cell-based. The conditions noted are these: F344I (H1R mimic) mutant vs wild type. How it is done: as §1, §2

A further assay relates to H4R. The conditions noted are these: cited from earlier work.
The target of the next assay is T13, human H4R Q347G mutant (Homo sapiens, UniProt Q9H3N8, Q347G).
T13 construct: a mutant H4R (human, full-length, and untagged); expressed in transfected cells; host or cells: HEK293A
Briefly: TGFα shedding assay, H4R Q347G mutant. Format: cell-based. Particulars: for Shedding assay: Q347G, raw replicates. How it is done: as §1, §2

The next assay deals with H3R. The conditions noted are these: cited from earlier work.

Each structure is given as a SMILES string. Several values for one entry are separate records, joined by “and”; a condition that tells them apart may be missing. Equal entries are not always repeated.

T2 sequence (Q9H3N8 whole entry Y319A): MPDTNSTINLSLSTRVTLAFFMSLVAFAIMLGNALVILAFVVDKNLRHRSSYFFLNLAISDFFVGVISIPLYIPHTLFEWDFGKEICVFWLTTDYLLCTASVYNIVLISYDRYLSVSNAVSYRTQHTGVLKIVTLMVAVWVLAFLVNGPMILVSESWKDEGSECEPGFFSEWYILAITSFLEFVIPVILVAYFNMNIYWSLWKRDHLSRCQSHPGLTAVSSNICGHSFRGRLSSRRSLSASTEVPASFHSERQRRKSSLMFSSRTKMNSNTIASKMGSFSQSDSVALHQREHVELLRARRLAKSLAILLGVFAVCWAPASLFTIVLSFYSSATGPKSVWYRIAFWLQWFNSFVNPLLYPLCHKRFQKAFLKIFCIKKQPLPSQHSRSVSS
T13 sequence (Q9H3N8 whole entry Q347G): as the sequence (Q9H3N8 whole entry Y319A) above, with A319Y, Q347G counted along it
T1 sequence (Q9H3N8 whole entry T99A): as the sequence (Q9H3N8 whole entry Y319A) above, with T99A, A319Y counted along it
T9 sequence (Q9H3N8 whole entry Q347A): as the sequence (Q9H3N8 whole entry Y319A) above, with A319Y, Q347A counted along it
T8 sequence (Q9H3N8 whole entry D94A): as the sequence (Q9H3N8 whole entry Y319A) above, with D94A, A319Y counted along it
T3 sequence (Q9H3N8 whole entry): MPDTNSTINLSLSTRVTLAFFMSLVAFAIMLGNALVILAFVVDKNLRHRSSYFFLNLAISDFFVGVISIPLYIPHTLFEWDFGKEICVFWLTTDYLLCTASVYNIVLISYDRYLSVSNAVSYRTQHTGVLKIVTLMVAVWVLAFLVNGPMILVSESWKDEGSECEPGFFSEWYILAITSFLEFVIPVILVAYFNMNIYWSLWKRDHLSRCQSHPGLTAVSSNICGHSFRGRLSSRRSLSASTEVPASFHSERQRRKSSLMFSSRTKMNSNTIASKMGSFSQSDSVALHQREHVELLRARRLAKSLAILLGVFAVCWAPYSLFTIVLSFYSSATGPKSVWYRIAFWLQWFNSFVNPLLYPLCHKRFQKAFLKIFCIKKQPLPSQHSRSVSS
T11 sequence (Q9H3N8 whole entry N147Y): as the sequence (Q9H3N8 whole entry Y319A) above, with N147Y, A319Y counted along it
T7 sequence (Q9H3N8 whole entry E182N): as the sequence (Q9H3N8 whole entry Y319A) above, with E182N, A319Y counted along it
T5 sequence (Q9H3N8 whole entry N147W): as the sequence (Q9H3N8 whole entry Y319A) above, with N147W, A319Y counted along it
T6 sequence (Q9H3N8 whole entry W348A): as the sequence (Q9H3N8 whole entry Y319A) above, with A319Y, W348A counted along it
T4 sequence (Q9H3N8 whole entry Y95A): as the sequence (Q9H3N8 whole entry Y319A) above, with Y95A, A319Y counted along it
T12 sequence (Q9H3N8 whole entry F344I): as the sequence (Q9H3N8 whole entry Y319A) above, with A319Y, F344I counted along it
T10 sequence (Q9H3N8 whole entry N147A): as the sequence (Q9H3N8 whole entry Y319A) above, with N147A, A319Y counted along it

With `NCCc1c[nH]cn1` [Histamine, histamine], the Emax at human H4R T99A mutant was found to be 22.8 ± 4.74%; on human wild-type H4R, 19.4 ± 1.15%; on human H4R Q347A mutant it was 10.1 ± 0.39%; at human H4R N147A mutant, 14.1 ± 1.55%; at human H4R N147Y mutant, 12.7 ± 0.59%; at human H4R Q347G mutant (Q347G mutant, AP-TGFα release, read-out: Emax (%) mean ± SEM) it was 8.8 ± 2.03%. In addition, the Shedding assay at human H4R Y319A mutant (Histamine (M) -5) is 10.8768 and 12.6921 and 5.241 and 7.176 and 7.908 and 3.094 and 14.7688 and 13.1717 and 9.412; at human H4R Y319A mutant (Histamine (M) -6), 7.788 and 3.872 and 6.096 and 6.136 and 6.023 and -28.9656 and 4.365 and 5.9934 and -0.2046; at human H4R Y319A mutant (Histamine (M) -7), 2.44 and -1.231 and 2.155 and 1.85 and -1.394 and -29.3347 and -0.9921 and -1.291 and -2.241; on human H4R Y319A mutant (Histamine (M) -8) it was 0.6613 and -7 and -0.6175 and -0.4917 and -2.608 and -5.072 and 0.7937 and -1.913 and -2.583; on human H4R Y319A mutant (Histamine (M) -9) it was -1.209 and -22 and -6.981 and -12.6602 and -5.831 and -0.2422 and 1.077 and -0.278 and -3.864; at human H4R Y319A mutant (Histamine (M) -10), 1.569 and -4.989 and -1.258 and -2.207 and 3.939 and 1.7806 and 0.1134 and -2.911 and -0.5847. Also, the Shedding assay was 4.036 and 4.533 and 6.034 and 9.629 and 9.888 and 8.1039 and 5.715 and 9.816 and 2.227 at human H4R Q347G mutant (Histamine (M) -5); 1.244 and 2.414 and 2.709 and 6.101 and 2.59 and 6.7488 and 1.268 and 6.261 and -9.381 at human H4R Q347G mutant (Histamine (M) -6); -1.992 on human H4R Q347G mutant (Histamine (M) -7); -6.39 and -0.908 and -4.351 and 0.1532 and -4.023 and 1.012 and -2.686 and 0.1556 and -3.9539 on human H4R Q347G mutant (Histamine (M) -8); -4.698 and -2.781 and -3.3698 and 0.654 and -4.363 and -0.5978 and -4.585 and -1.275 and -2.147 at human H4R Q347G mutant (Histamine (M) -9); -5.104 and -0.2815 and -4.911 and 2.46 and -0.8571 and 1.119 and -8.947 and 3.16 and -0.4453 at human H4R Q347G mutant (Histamine (M) -10). For the same compound, the “signaling activity at mutant, in words” value on human H4R Y95A mutant is “dramatically reduced”; on human H4R N147W mutant, “loss of signaling activity”; at human H4R W348A mutant it was “loss of signaling activity”; on human H4R E182N mutant, “loss of signaling activity”; at human H4R D94A mutant, “loss of activity”; at human H4R F344I mutant, “did not exhibit histamine activity”. In addition, the “affinity of H2R” value in the assay on H2R is reported as “μM range”. Besides, the “affinity of H1R” value with H1R is given as “μM range”. For the same compound, the “affinity of H4R” value in the assay with H4R (range in words) was “nM range”. In addition, the “affinity of H3R” value in the assay on H3R (range in words) was “nM range”.

With `CN=C(NC#N)NC[C@H]1CC[C@H](c2cnc[nH]2)O1` [OUP-16], the “selectivity for H4R” value in the assay on H4R (H4R over H3R) was 16 fold. In addition, the Ki is 125 nM on H4R (read-out: H4R Ki) and 2000 nM at H3R (read-out: H3R Ki).
